Columns and labels:
BACE2 = BACE2 (Rattus norvegicus (Rat), UniProt Q6IE75); assay: Assay for BACE inhibition by measuring cellular TMEM27 cleavage; assay type: cell-based; conditions: INS-TMEM27 (INS1e rat cell line, inducible hTMEM27); shed TMEM27 by ELISA
Text: Assay for BACE Inhibition by Measuring Cellular TMEM27 Cleavage:
The assay uses the principle of inhibition of human TMEM27 cleavage by endogenous cellular BACE2 in the Ins1e rat cell line and shedding from the cell surface into the culture medium, followed by detection in an ELISA assay Inhibition of BACE2 prevents the cleavage and shedding in a dose-dependent manner.
The stable cell line “INS-TMEM27” represents an INS1e-derived cell line with inducible expression (using the TetOn system) of full-length hTMEM27 in a doxycycline-dependent manner. The cells are cultured throughout the experiment in RPMI1640+Glutamax (Invitrogen) Penicillin/Streptomycin, 10% Fetal bovine serum, […], […], 100 micrograms/ml G418 and 100 microgram/ml hygromycin and are grown inadherent culture at 37° C. in a standard CO2 cell culture incubator.
INS-TMEM27 cells are seeded in 96-well plates. After 2 days in culture, BACE2 inhibitor is added in a range of concentrations as required by the assay and after a further two hours, doxycycline is added to a final concentration of 500 ng/ml. The cells are incubated for a further 46 hours and the supernatant harvested for detection of shed TMEM27.
An ELISA assay (using a pair of mouse anti-human-TMEM27 antibodies, raised against the extracellular domain of TMEM27) is used for detection of TMEM27 in the culture medium. An EC50 for BACE2 inhibition is calculated using the ELISA readout for each inhibitor concentration with standard curve-fitting software such as XLFit for the Excel spreadsheet program.

BACE1 = BACE1 (Homo sapiens (Human), UniProt P56817); assay: Cellular Aβ-lowering assay; assay type: cell-based; conditions: HEK293 cells stably expressing human APP wt (APP695); Aβ40 in supernatant by ELISA after 18-20 hrs
Experimental: Cellular Aβ-Lowering Assay: Human HEK293 cells which are stably transfected with a vector expressing a cDNA of the human APP wt gene (APP695) were used to assess the potency of the compounds in a cellular assay. The cells were seeded in 96-well microtiter plates in cell culture medium (Iscove, plus 10% (v/v) fetal bovine serum, glutamine, penicillin/streptomycin) to about 80% confluence and the compounds were added at a 10× concentration in 1/10 volume of medium without FCS containing 8% DMSO (final concentration of DMSO was kept at 0.8% v/v). After 18-20 hrs incubation at 37° C. and 5% CO2 in a humidified incubator the culture supernatant was harvested for the determination of Aβ40 concentrations. […] After blocking of non-specific binding sites with e.g. 1% BSA and washing, the culture supernatants were added in suitable dilutions together with a horseradish peroxidase-coupled Aβ detection antibody (e.g., antibody 4G8, Senetek, Maryland Heights, Mo.) and incubated for 5 to 7 hrs. Subsequently the wells of the microtiter plate were washed extensively with Tris-buffered saline containing 0.05% Tween 20 and the assay was developed with tetramethylbenzidine/H2O2 in citric acid buffer. After stopping the reaction with one volume […] the reaction was measured in an ELISA reader at 450 nm wavelength. The concentrations of Aβ in the culture supernatants were calculated from a standard curve obtained with known amounts of pure Aβ peptide.

BACE2, sequence (Q6IE75 63-514): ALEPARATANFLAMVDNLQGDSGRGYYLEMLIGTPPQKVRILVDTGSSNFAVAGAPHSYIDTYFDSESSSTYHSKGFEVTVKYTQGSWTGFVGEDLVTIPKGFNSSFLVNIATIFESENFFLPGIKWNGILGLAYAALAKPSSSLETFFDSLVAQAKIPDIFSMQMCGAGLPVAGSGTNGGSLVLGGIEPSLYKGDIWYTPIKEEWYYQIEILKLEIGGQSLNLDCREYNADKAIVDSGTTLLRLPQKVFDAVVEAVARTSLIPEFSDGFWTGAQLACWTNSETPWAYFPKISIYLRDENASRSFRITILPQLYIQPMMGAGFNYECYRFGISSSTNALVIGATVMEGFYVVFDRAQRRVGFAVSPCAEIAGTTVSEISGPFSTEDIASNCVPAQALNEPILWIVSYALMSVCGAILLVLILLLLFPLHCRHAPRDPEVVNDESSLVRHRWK
BACE1, sequence (P56817 46-501): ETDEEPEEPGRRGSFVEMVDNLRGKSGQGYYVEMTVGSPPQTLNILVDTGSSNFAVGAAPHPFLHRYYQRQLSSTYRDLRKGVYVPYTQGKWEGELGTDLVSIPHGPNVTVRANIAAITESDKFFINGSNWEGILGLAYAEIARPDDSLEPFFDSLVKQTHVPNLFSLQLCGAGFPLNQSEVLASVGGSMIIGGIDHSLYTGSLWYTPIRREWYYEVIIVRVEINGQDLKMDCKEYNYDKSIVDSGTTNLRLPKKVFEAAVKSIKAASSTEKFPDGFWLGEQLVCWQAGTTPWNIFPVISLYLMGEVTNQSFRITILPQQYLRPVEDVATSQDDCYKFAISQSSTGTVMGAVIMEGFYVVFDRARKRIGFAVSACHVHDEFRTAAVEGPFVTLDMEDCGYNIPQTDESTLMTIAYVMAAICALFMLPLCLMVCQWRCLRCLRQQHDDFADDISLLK

SMILES	IC50 (BACE2) [nM]	IC50 (BACE1) [nM]
C[C@]1(c2cc(NC(=O)c3ncc(C(F)(F)F)cc3Cl)ccc2F)N=C(N)OC[C@H]1F [Example 36, 3-Chloro-5-trifluoromethyl-pyridine-2-carboxylic acid [3-((4R,5S)-2-amino-5-fluoro-4-methyl-5,6-dihydro-4H-[1,3]oxazin-4-yl)-4-fluoro-phenyl]-amide]	4030	140
C[C@]1(F)COC(N)=N[C@]1(C)c1cc(NC(=O)c2ccc(F)cn2)ccc1F [Example 42, 5-Fluoro-pyridine-2-carboxylic acid [3-((4R,5R)-2-amino-5-fluoro-4,5-dimethyl-5,6-dihydro-4H-[1,3]oxazin-4-yl)-4-fluoro-phenyl]-amide]	74	11
C[C@]1(F)COC(N)=N[C@]1(C)c1cc(NC(=O)c2nn(CC(F)F)cc2Cl)ccc1F [Example 43, 4-Chloro-1-(2,2-difluoro-ethyl)-1H-pyrazole-3-carboxylic acid [3-((4R,5R)-2-amino-5-fluoro-4,5-dimethyl-5,6-dihydro-4H-[1,3]oxazin-4-yl)-4-fluoro-phenyl]amide]	110	183
C[C@]1(c2cc(NC(=O)c3ccc(OCF)cn3)ccc2F)N=C(N)OC[C@@H]1F [Example 5, 5-Fluoromethoxy-pyridine-2-carboxylic acid [3-((4R,5R)-2-amino-5-fluoro-4-methyl-5,6-dihydro-4H-[1,3]oxazin-4-yl)-4-fluoro-phenyl]]	106	1

From patent US8754075B2, “1,3-oxazines as BACE1 and/or BACE2 inhibitors” (Hoffmann-La Roche Inc., priority 2011, dated 2014)
